{
  "source": "paper PMC12154284",
  "about": "“FYCO1 Peptide Analogs: Design and Characterization of Autophagy Inhibitors as Co-Adjuvants in Taxane Chemotherapy of Prostate Cancer” (International Journal of Molecular Sciences, 2025)",
  "origin": "cited, not measured here",
  "target": "LC3B",
  "details": "eicosapeptide, ref [30]; cited from earlier work",
  "from_the_text": "This small protein sequence consists of four conserved residues that can be succinctly represented as a sequence of “X0–X1–X2–X3”, where X0 represents an aromatic residue (Trp/Phe/Tyr), X1 and X2 can denote any amino acids (often acidic or hydrophobic residues), and X3 signifies a large hydrophobic residue such as Leu, Val, or Ile. Consequently, the LIR domain can be considered a promising starting poi ... || To measure the dissociation constants (Kd) of the peptides on human recombinant His-tagged LC3B protein, MST experiments were carried out on a Monolith NT.115^Pico instrument (see the Materials and Methods section for details). […] The electrostatic interactions between the new peptides and LC3B’s positively charged surface—defined by the residues K49, K51, R69, and R70—correlated with low predicted ΔG* values, explaining their improved ...",
  "data": [
    {"substance": "RDDAV2DIITDEEαCQIQEW [Comb1]", "values": [
      {"measurement": "Kd", "result": 120, "unit": "nM"}
    ]}
  ]
}
